Measurements reported in patent US20200138764A1, “METHODS AND DEVICES FOR ACTIVATING ADIPOSE TISSUE” (The Procter & Gamble Company, priority 2018, published 2020).

Tests used:
adipocytes = assay: Real Time PCR analysis of adipocytes, in vitro; assay type: cell-based, human; conditions: Real Time PCR, relative to untreated control = 1
Experimental: For Real Time PCR analysis of adipocytes, cells from cultures grown in 24 well plates were collected. RNA was isolated using RNeasy Kit (Cat 74104, Qiagen, Germantown, Md.) using manufacturer's protocol. RNA was quantitated using the Nanodrop 1000 (Thermofisher, Waltham, Mass.). cDNA formation was carried out using PowerUp SYBR™ Green Master Mix and real time PCR carried out on QuantStudio 6 machine (ThermoFisher, Waltham, Mass.) per manufacturer protocol. ΔΔCT analysis was done using the Expression Suite software (ThermoFisher) purchased with the instrument.
TABLE 2 used Real Time PCR to determine which proteins were expressed in adipocytes upon treatment with activating compounds. […] Real Time PCR values were relative to a control sample that was not treated with any activating compounds. […] In WS-5 and Menthol, no Real Time PCR value was over 2.0, which indicated only slight changes in mRNA expression.

human TRPM8 = assay: TRPM8 Protocol-FLIPR Assay (intracellular Ca2+); assay type: cell-based; conditions: HEK-293 cells stably transfected with human TRPM8, Fluo-4 AM, relative to benchmark agonist WS-5
Experimental: To determine whether TRPM8 is activated, the intracellular calcium ion (Ca^2+) level was measured from transfected cells with the TRPM8 receptor sequence (SEQ ID NO: 1). HEK-293 (human embryonic kidney) cells stably transfected with human TRPM8 were grown in 15 mL growth medium (high glucose DMEM (Dulbecco's Modification of Eagle's Medium) supplemented with 10% FBS (fetal bovine serum), 100 μg/mL penicillin/streptomycin, 5 μg/mL blasticindin, and 100 μg/mL zeocin) in a 75 cm^2 flask for 3 days at 37° C. in a mammalian cell culture incubator (Forma Scientific Model 3110, Marietta, Ohio) set at 5% CO2. Cells were detached with addition of 2 mL of trypsin-EDTA buffer (GIBCO® 25200, Invitrogen, Grand Island, N.Y.) for about 2-3 min. Trypsin was inactivated by addition of 8 mL growth medium. Cells were transferred to a 50 mL tube and centrifuged at 850 rpm for 3 minutes to remove medium. After centrifugation, a pellet of cells was formed in the bottom of the tube separating them from the supernatant solution. The supernatant was discarded and the cell pellet was suspended in 1 mL of fresh growth medium to which 5 μL (12.5 μg) of Fluo-4 AM (Molecular Probes, Inc., Eugene, Oreg.) calcium indicator was added and incubated for 30 min with gentle shaking. Fluo-4 AM is a fluorescent dye used for quantifying cellular Ca^2+ concentrations in the 100 nM to 1 μM range. At the end of 30 minutes, 45 mL of assay buffer (1×HBSS (Hank's Balanced Salt Solution), 20 mM HEPES (4-(2-Hydroxyethyl)-1-piperazineethanesulfonic acid)) was added to wash cells and the resulting mixture was then centrifuged at 850 rpm for 3 minutes at 20° C. to remove excess buffer and Fluo-4 AM calcium indicator.
The pelleted cells were re-suspended in 10 mL assay buffer and 90 μL aliquots (˜50,000 cells) per well delivered to a 96-well assay plate containing 10 μL of test compounds (1 mM in assay buffer, final concentration 100 μM) or buffer control and incubated at room temperature for 30 minutes. After 30 minutes, a plate (Falcon 353219, Corning Corning N.Y.) was placed into a fluorometric imaging plate reader (FLIPR384 from Molecular Devices, Sunnyvale, Calif.) and basal fluorescence recorded (excitation wave length 488 nm and emission wave length 510 nm). Then 20 μL of 100 mM of TRPM8 agonist WS5 coolant in the assay buffer was added and fluorescence recorded. For determining the direct effect of test compounds on TRPM8, fluorescence was measured immediately after addition of each compound (TABLE 1). Additional discussion of the FLIPR method can be found in Smart et al., Characterization using FLIPR of human vanilloid VR1 receptor pharmacology, European Journal of Pharmacology 417, 51-58 (2001) and Liu et al., Development and validation of a platelet calcium flux assay using a fluorescent imaging plate reader, Analytical Biochemistry 357, 216-224 (2006).
The magnitude of the fluorescence of the active-treated cells was compared to the magnitude of the fluorescence from a benchmark agonist (WS-5), as described above. The percentage of fluorescence as a function of active dose was plotted and a sigmoidal curve was generated. Curve fitting from this dose-response curve yielded the value for TRPM8 IC50 in nM.
TRPM8 activation was determined by measuring intracellular calcium ion (Ca^2+) level from transfected cells with the TRPM8 receptor gene, as described in EXAMPLE 1, the results of which are shown in TABLE 1. IC50 values are provided in column 3 of TABLE 1, which measured the concentration of activating compound needed to reduce intracellular [Ca^2+] by 50%. […]

CCOC(=O)CNC(=O)[C@@H]1C[C@H](C)CC[C@H]1C(C)C [WS-5]
Relative Expression of mRNA in Adipocytes: 18S (adipocytes): 0.85
Relative Expression of mRNA in Adipocytes: ACADM (adipocytes): 1.45
Relative Expression of mRNA in Adipocytes: CPT1A (adipocytes): 1.5
Relative Expression of mRNA in Adipocytes: FASN (adipocytes): 2.0
Relative Expression of mRNA in Adipocytes: GAPDH (adipocytes): 1
Relative Expression of mRNA in Adipocytes: PPARGC1A (adipocytes): 1.7
Relative Expression of mRNA in Adipocytes: PRDM16 (adipocytes): 1.3
Relative Expression of mRNA in Adipocytes: UCP-1 (adipocytes): 1.5
IC50 (human TRPM8): 2 µM

CC(C)[C@@H]1CC[C@@H](C)C[C@H]1C(=O)NC[C@@H](NC(=O)[C@H](C)N)c1ccccc1 [Formula III]
Relative Expression of mRNA in Adipocytes: 18S (adipocytes): 1
Relative Expression of mRNA in Adipocytes: ACADM (adipocytes): 1.75
Relative Expression of mRNA in Adipocytes: CPT1A (adipocytes): 1.7
Relative Expression of mRNA in Adipocytes: FASN (adipocytes): 1.85
Relative Expression of mRNA in Adipocytes: GAPDH (adipocytes): 1
Relative Expression of mRNA in Adipocytes: PPARGC1A (adipocytes): 0.8
Relative Expression of mRNA in Adipocytes: PRDM16 (adipocytes): 0.6
IC50 (human TRPM8): 0.002 µM

CC1CCC(C(C)C)C(O)C1 (centres unmarked) [Menthol]
Relative Expression of mRNA in Adipocytes: 18S (adipocytes): 1
Relative Expression of mRNA in Adipocytes: ACADM (adipocytes): 1.45
Relative Expression of mRNA in Adipocytes: CPT1A (adipocytes): 1.35
Relative Expression of mRNA in Adipocytes: FASN (adipocytes): 1.45
Relative Expression of mRNA in Adipocytes: GAPDH (adipocytes): 1
Relative Expression of mRNA in Adipocytes: PPARGC1A (adipocytes): 2.0
Relative Expression of mRNA in Adipocytes: PRDM16 (adipocytes): 0.75
Relative Expression of mRNA in Adipocytes: UCP-1 (adipocytes): 1.7
IC50 (human TRPM8): 7 µM
